Our source for the IC50 and REC values is ChEMBL document CHEMBL1138027, “Dimethoxybenzo[i]phenanthridine-12-carboxylic acid derivatives and 6H-dibenzo[c,h][2,6]naphthyridin-5-ones with potent topoisomerase I-targeting activity and cytotoxicity” (Bioorg Med Chem Lett, 2004).

Test [1] has as its system KB 3-1. Put plainly: Concentration required to inhibit cell proliferation by 50% in KB3-1 tumor cell line. Type of test: functional, cell-based. To be noted: Homo sapiens.
Test [2] is described as follows: Concentration required to inhibit cell proliferation by 50% in P388/CPT-45 tumor cell line; camptothecin resistant. Type of test: functional. To be noted: Mus musculus, P388CPT45.
For a further test, the system named is P388. Kind of test: Concentration required to inhibit cell proliferation in P388 tumor cell line. Type of test: functional, cell-based. To be noted: Mus musculus.
Test [3] concerns RPMI 8402. Kind of test: Concentration required to inhibit cell proliferation in […] tumor cell line. The test is classed as functional, cell-based. To be noted: Homo sapiens.
In test [4] the test system is KB. Put plainly: Concentration required to inhibit cell proliferation by 50% in KBV-1 tumor cell line; overexpress MDR1. The test is classed as functional, cell-based. To be noted: Homo sapiens.
In test [5] the test system is RPMI 8402. Kind of test: Concentration required to inhibit cell proliferation in CPT-K5 tumor cell line; camptothecin resistant. Type of test: functional, cell-based. To be noted: Homo sapiens.
For test [6], the system named is KB 3-1. Put plainly: Concentration required to inhibit cell proliferation by 50% in KBH5.0 tumor cell line; overexpress BCRP. The test is classed as functional, cell-based. The settings on record: Homo sapiens.
The target of test [7] is T1, DNA topoisomerase 1 (Homo sapiens) (UniProt P11387).
T1 sequence (whole entry): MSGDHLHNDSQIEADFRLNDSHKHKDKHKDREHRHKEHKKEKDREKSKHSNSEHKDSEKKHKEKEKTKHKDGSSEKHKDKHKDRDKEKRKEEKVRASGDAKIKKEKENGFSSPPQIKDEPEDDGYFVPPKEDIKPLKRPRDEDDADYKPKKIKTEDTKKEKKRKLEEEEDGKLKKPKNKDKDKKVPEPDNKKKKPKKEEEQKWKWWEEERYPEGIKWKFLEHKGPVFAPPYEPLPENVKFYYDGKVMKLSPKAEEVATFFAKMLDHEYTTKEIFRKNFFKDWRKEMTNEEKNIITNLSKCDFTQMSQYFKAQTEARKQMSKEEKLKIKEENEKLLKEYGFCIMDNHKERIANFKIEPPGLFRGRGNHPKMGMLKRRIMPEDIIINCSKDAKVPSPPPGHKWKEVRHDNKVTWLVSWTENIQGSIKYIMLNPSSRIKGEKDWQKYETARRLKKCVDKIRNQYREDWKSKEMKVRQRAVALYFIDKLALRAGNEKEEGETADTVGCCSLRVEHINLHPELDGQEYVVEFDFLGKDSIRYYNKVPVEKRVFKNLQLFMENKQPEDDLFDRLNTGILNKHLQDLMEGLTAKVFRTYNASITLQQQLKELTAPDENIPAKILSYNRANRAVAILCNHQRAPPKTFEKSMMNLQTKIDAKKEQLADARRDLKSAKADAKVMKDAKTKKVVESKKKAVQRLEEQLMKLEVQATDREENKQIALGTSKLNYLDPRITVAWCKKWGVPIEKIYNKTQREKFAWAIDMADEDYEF
Kind of test: Relative effective concentration to cleave plasmid DNA with human topoisomerase I; compared to camptothecin=1.

Test [8] concerns KB. Put plainly: Concentration required to inhibit cell proliferation in KBV-1 tumor cell line; overexpress MDR1. The settings on record: Homo sapiens. The test is classed as functional, cell-based.
Test [9] in a line: Concentration required to inhibit cell proliferation in P388/CPT-45 tumor cell line; camptothecin resistant. To be noted: Mus musculus, P388CPT45. The test is classed as functional.
For test [10], the system named is KB 3-1. Put plainly: Concentration required to inhibit cell proliferation in KB3-1 tumor cell line. Type of test: functional, cell-based. To be noted: Homo sapiens.
Test [11] relates to KB 3-1. Kind of test: Concentration required to inhibit cell proliferation in KBH5.0 tumor cell line; overexpress BCRP. Type of test: functional, cell-based. The settings on record: Homo sapiens.

Take `COc1cc2c3cnc4cc5c(cc4c3c(=O)n(CCN(C)C)c2cc1OC)OCO5`: the IC50 with KB 3-1 [1] was determined as 0.002 µM; in test [2], 0.2 µM; in the test on P388 it was 0.002 µM; in the test on RPMI 8402 [3] it was 0.0007 µM; with KB [4] it was 0.004 µM; in the test on RPMI 8402 [5], 0.21 µM. The compound also had a half-inhibitory concentration (IC50) in the test with KB 3-1 [6] of 0.004 µM. The same compound returned an REC in test [7] of 3.
With `COc1cc2c(C(=O)NCCCN(C)C)cc3c4cc5c(cc4ncc3c2cc1OC)OCO5`, the IC50 with KB 3-1 [1] is 0.04 µM; in test [2] it was 0.34 µM; in the test with P388, 0.03 µM; in the test with RPMI 8402 [3], 0.05 µM; with KB [4], 4.5 µM; in the test with RPMI 8402 [5] it was 2.05 µM. The same compound yielded a concentration for half-maximal inhibition (IC50) with KB 3-1 [6] of 0.5 µM. The same compound had an REC in test [7] of 30.
Regarding `COc1cc2c3cnc4cc5c(cc4c3c(=O)n(CCCN(C)C)c2cc1OC)OCO5`, the half-inhibitory concentration (IC50) in the test on KB [8] was found to be 0.007 µM; in test [9] it was 0.02 µM; with P388 it was 0.003 µM; in the test on KB 3-1 [10], 0.003 µM; with RPMI 8402 [3], 0.0005 µM; in the test with KB 3-1 [11] it was 0.004 µM. This compound returned an IC50 in the test on RPMI 8402 [5] of 0.2 µM. Besides, the REC in test [7] stood at 3.
For the compound `COc1cc2c(=O)n(CCN(C)C)c3c4cc5c(cc4ncc3c2cc1OC)OCO5`, the 50% inhibitory concentration (IC50) came out at 0.005 µM in the test on KB [8]; 0.23 µM in test [9]; 0.001 µM in the test with P388; 0.005 µM in the test on KB 3-1 [10]; 0.006 µM in the test with KB 3-1 [11]; 0.9 µM in the test with RPMI 8402 [5].
Take `COc1cc2c3cnc4cc5c(cc4c3c(=O)n(CCN3CCCCC3)c2cc1OC)OCO5`: the IC50 worked out at 0.006 µM with KB [8]; 0.23 µM in test [9]; 0.003 µM in the test on P388; 0.006 µM in the test on KB 3-1 [10]; 0.001 µM in the test on RPMI 8402 [3]; 0.007 µM in the test on KB 3-1 [11]. In addition, the IC50 in the test with RPMI 8402 [5] was found to be 1.5 µM. Further, the REC in test [7] was 0.1.
Turning to `COc1cc2c(C(=O)OCCN(C)C)cc3c4cc5c(cc4ncc3c2cc1OC)OCO5`, the IC50 with KB 3-1 [1] was determined as 0.03 µM; in test [2], 0.02 µM; in the test on P388, 0.01 µM; with RPMI 8402 [3], 0.03 µM; with KB [4], 0.22 µM; with RPMI 8402 [5], 0.73 µM. Also, the IC50 in the test on KB 3-1 [6] stood at 0.07 µM. The compound also showed an REC in [7] of 5.
Regarding `CCN(CC)CCn1c(=O)c2c3cc4c(cc3ncc2c2cc(OC)c(OC)cc21)OCO4`, the IC50 in the test on KB [8] came to 0.01 µM; in test [9], 0.03 µM; with P388 it was 0.003 µM; with KB 3-1 [10], 0.003 µM; in the test with RPMI 8402 [3], 0.003 µM; with KB 3-1 [11] it was 0.005 µM. Further, in the test with RPMI 8402 [5], the IC50 turned out to be 0.9 µM. The REC in test [7] stood at 0.7.
In the case of `COc1cc2c(C(=O)NCCN(C)C)cc3c4cc5c(cc4ncc3c2cc1OC)OCO5`, the half-inhibitory concentration (IC50) in the test on KB 3-1 [1] came to 0.001 µM; in test [2], 0.26 µM; in the test with P388 it was 0.002 µM; with RPMI 8402 [3] it was 0.003 µM; in the test on KB [4], 0.1 µM; with RPMI 8402 [5], 1 µM. Further, the IC50 in the test with KB 3-1 [6] came out at 0.03 µM. The compound also came in with an REC in [7] of 0.5.
`CC[C@@]1(O)C(=O)OCc2c1cc1n(c2=O)Cc2cc3c(CN(C)C)c(O)ccc3nc2-1` [TOPOTECAN]: the IC50 is 0.44 µM with KB [8]; over 10 µM in test [9]; 0.04 µM with P388; 0.04 µM with KB 3-1 [10]; 0.02 µM in the test on RPMI 8402 [3]; 0.44 µM in the test with KB 3-1 [11]. In addition, the IC50 with RPMI 8402 [5] is over 10 µM. The REC in test [7] is 5.
Turning to `CC[C@@]1(O)C(=O)OCc2c1cc1n(c2=O)Cc2cc3ccccc3nc2-1` [CAMPTOTHECIN], the IC50 in the test with KB [8] was 0.02 µM; in [9], over 10 µM; in the test with P388, 0.01 µM; in the test on KB 3-1 [10], 0.01 µM; with RPMI 8402 [3] it was 0.006 µM; in the test with KB 3-1 [11], 0.02 µM. For the same compound, the half-inhibitory concentration (IC50) in the test on RPMI 8402 [5] is over 10 µM. This compound also returned an REC in [7] of 1.
As for `COc1cc2c(C(=O)OCCCN(C)C)cc3c4cc5c(cc4ncc3c2cc1OC)OCO5`, the 50% inhibitory concentration (IC50) is 0.5 µM in the test on KB 3-1 [1]; 0.14 µM in test [2]; 0.11 µM with P388; 0.22 µM in the test on RPMI 8402 [3]; 2 µM in the test on KB [4]; 1.5 µM with RPMI 8402 [5]. The compound also yielded an IC50 in the test on KB 3-1 [6] of 0.6 µM. In addition, the REC in test [7] was 7.
`CCOC(=O)c1cc2c3cc4c(cc3ncc2c2cc(OC)c(OC)cc12)OCO4`: the IC50 with KB 3-1 [1] is 0.04 µM; in test [2], 3.25 µM; with P388 it was 0.04 µM; in the test on RPMI 8402 [3], 0.08 µM; in the test with KB [4], 0.34 µM; in the test on RPMI 8402 [5] it was over 10 µM. This compound also yielded a concentration for half-maximal inhibition (IC50) in the test with KB 3-1 [6] of 0.11 µM. Also, the REC in test [7] came to 12.
